These results are taken from US10961202B2, “Bis-benzimidazole compounds and methods of using the same” (THE SCRIPPS RESEARCH INSTITUTE, priority 2017, dated 2021).

Broadly, the pIC50 is −log10 of the IC50, conventionally taken in molar units.

The subject of one experiment is r(CUG)12-MBNL1 complex. As to the kind of experiment: Inhibition of the r(CUG)12-MBNL1 complex measured by TR-FRET. The experiment is classed as biochemical. Particulars: 80 nM RNA, 60 nM MBNL1-His6. (TR-FRET usually uses a lanthanide donor and a delayed reading to cut background.)
Experiment [1] has as its system MBNL1 exon 5 inclusion in DM1 myotubes. As to the kind of experiment: Myotube splicing rescue assay (MBNL1 exon 5 inclusion). The experiment is classed as cell-based, human. Particulars: 48-hour incubation.

pIC50: −log10 of the molar value.

`CN(C)CCCOc1ccc2nc(-c3ccc(-c4nc5ccc(OCCCN(C)C)cc5[nH]4)nc3)[nH]c2c1` [Compound 276, 3,3′-(2,2′-(pyridine-2,5-diyl)bis(3H-benzo[d]imidazole-5,2-diyl))bis(oxy)bis(N,N-dimethylpropan-1-amine)]: the pIC50 with r(CUG)12-MBNL1 complex (Table M) was 5.01. Further, the “MBNL1 % splicing rescue at 10 μM” value in experiment [1] was 63.1%.
`COc1cc(-c2nc3ccc(C(=O)NCCN(C)C)cc3[nH]2)c(OC)cc1-c1nc2cc(OCCCN(C)C)ccc2[nH]1` [Compound 298]: in the experiment on r(CUG)12-MBNL1 complex (Table M), the negative-log IC50 (pIC50) is 4.63. In addition, in experiment [1], the “MBNL1 % splicing rescue at 10 μM” value is given as −41.8%.
For `CC(=O)NCCCn1cc(CCCCN(C)CCNC(=O)c2ccc(-c3nc4cc(-c5ccc6[nH]c(-c7ccc(C(=O)NCCN(C)C)cc7)nc6c5)ccc4[nH]3)cc2)nn1` [Compound 402], the negative logarithm of the IC50 (pIC50) in the experiment on r(CUG)12-MBNL1 complex (Table M) is 4.96. For the same compound, in experiment [1], the “MBNL1 % splicing rescue at 5 μM” value is listed as −33.8%.
Regarding `CN(C)CCNC(=O)c1ccc2nc(-c3ccc(-c4nc5ccc(NC6=NCCN6C6=NCCN6)cc5[nH]4)cc3)[nH]c2c1` [Compound 148], the pIC50 with r(CUG)12-MBNL1 complex (Table L) is 5.13. Moreover, the “MBNL1 % splicing rescue at 10 μM” value in experiment [1] was found to be 1.7%.
In turn, `CN(C)CCCOc1ccc2nc(-c3ccc(-c4nc5ccc(NC6=NCCN6C6=NCCN6)cc5[nH]4)cc3)[nH]c2c1` [Compound 171] gave a pIC50 in the experiment with r(CUG)12-MBNL1 complex (Table M) of 5.02. In experiment [1], the “MBNL1 % splicing rescue at 1 μM” value was 11.5% and the “MBNL1 % splicing rescue at 10 μM” value is 7.8%.
In the experiment with r(CUG)12-MBNL1 complex (Table M), `CN(C)CCCOc1ccc(-c2nc3cc(-c4ccc5[nH]c(-c6ccc(C(=O)NCCCn7cc(COCCOCCN(C)C(=O)c8ccc(-c9nc%10cc(-c%11ccc%12[nH]c(-c%13ccc(C(=O)NCCN(C)C)cc%13)nc%12c%11)ccc%10[nH]9)cc8)nn7)cc6)nc5c4)ccc3[nH]2)cc1` [Compound 458] gave a pIC50 of 4.69. In experiment [1], the “MBNL1 % splicing rescue at 5 μM” value is on record as −14.7%.
In the experiment on r(CUG)12-MBNL1 complex (Table M), `CN(C)CCNC(=O)c1ccc(-c2nc3cc(-c4ccc5[nH]c(-c6ccc(C(=O)NCCN(C)CCCCc7cn(CCCNC(=O)CCC(=O)NCCCn8cc(CCCCN(C)CCNC(=O)c9ccc(-c%10nc%11cc(-c%12ccc%13[nH]c(-c%14ccc(C(=O)NCCN(C)C)cc%14)nc%13c%12)ccc%11[nH]%10)cc9)nn8)nn7)cc6)nc5c4)ccc3[nH]2)cc1` [Compound 408] gave a pIC50 of 6.29. Also, the “MBNL1 % splicing rescue at 1 μM” value in experiment [1] came out at 3.9%.
The compound `CN(C)CCNC(=O)c1ccc2nc(-c3ccc(-c4nc5ccc(C(=O)NCCN(C)C)cc5[nH]4)cc3)[nH]c2c1` [Compound 16, 2,2′-(1,4-phenylene)bis(N-(2-(dimethylamino)ethyl)-1H-benzo[d]imidazole-6-carboxamide)] had a pIC50 with r(CUG)12-MBNL1 complex (Table L) of 5.21. For the same compound, the “MBNL1 % splicing rescue at 10 μM” value in experiment [1] is listed as −4.3%.
`COCCOc1cc(-c2nc3ccc(OCCCN(C)C)cc3[nH]2)ccc1-c1nc2ccc(OCCCN(C)C)cc2[nH]1` [Compound 258, 3,3′-((2,2′-(2-(2-methoxyethoxy)-1,4-phenylene)bis(1H-benzo[d]imidazole-6,2-diyl))bis(oxy))bis(N,N-dimethylpropan-1-amine)] showed a pIC50 in the experiment on r(CUG)12-MBNL1 complex (Table M) of 4.51. For the same compound, the “MBNL1 % splicing rescue at 10 μM” value in experiment [1] came out at 10.0%.
The like results for `CN(C)CCCOc1ccc2nc(-c3ccc(-c4nc5ccc(OCCCN(C)C)cc5[nH]4)c(OCCCl)c3)[nH]c2c1` [Compound 267, 3,3′-(((2-(2-chloroethoxy)-1,4-phenylene)bis(1H-benzo[d]imidazole-2,6-diyl))bis(oxy))bis(N,N-dimethylpropan-1-amine)] were, in that order, 4.96 and 1.8%.
The like results for `CN(C)CCCNC(=O)c1ccc(-c2nc3cc(-c4ccc5[nH]c(-c6ccc(C(=O)NCCCN(C)C)cc6)nc5c4)ccc3[nH]2)cc1` [Compound 393] were, in that order, 5.13 and 17.1%.
Regarding `O=C(NCCN1CCCCC1)c1ccc2nc(-c3ccc(-c4nc5ccc(C(=O)NCCN6CCCCC6)cc5[nH]4)cc3)[nH]c2c1` [Compound 41, 2,2′-(1,4-phenylene)bis(N-(2-(piperidin-1-yl)ethyl)-1H-benzo[d]imidazole-6-carboxamide)], the pIC50 in the experiment on r(CUG)12-MBNL1 complex (Table L) is 5.18. Further, in experiment [1], the “MBNL1 % splicing rescue at 1 μM” value came out at 43.7% and the “MBNL1 % splicing rescue at 10 μM” value amounted to 59.1%.
`CN(C)CCNC(=O)c1ccc(-c2nc3cc(-c4ccc5[nH]c(-c6ccc(SCCN(C)C)cc6)nc5c4)ccc3[nH]2)cc1` [Compound 384] showed a pIC50 with r(CUG)12-MBNL1 complex (Table M) of 4.99. The “MBNL1 % splicing rescue at 10 μM” value in experiment [1] was 93.9%.
For `O=C(NCCN1CCCCC1)c1ccc2nc(-c3ccc(-c4nc5ccc(C(=O)NCCN6CCCCC6)cc5[nH]4)c([N+](=O)[O-])c3)[nH]c2c1` [Compound 173, 2,2′-(2-nitro-1,4-phenylene)bis(N-(2-(piperidin-1-yl)ethyl)-1H-benzo[d]imidazole-6-carboxamide)], the pIC50 in the experiment on r(CUG)12-MBNL1 complex (Table M) was 4.66. Besides, in experiment [1], the “MBNL1 % splicing rescue at 1 μM” value is reported as 1.5% and the “MBNL1 % splicing rescue at 10 μM” value is listed as 23.1%.
In the experiment on r(CUG)12-MBNL1 complex (Table M), `NCCN1CCN(CCNC(=O)c2ccc3nc(-c4ccc(-c5nc6ccc(C(=O)NCCN7CCCCC7)cc6[nH]5)cc4)[nH]c3c2)CC1` [Compound 185, N-(2-(4-(2-aminoethyl)piperazin-1-yl)ethyl)-2-(4-(6-((2-(piperidin-1-yl)ethyl)carbamoyl)-1H-benzo[d]imidazol-2-yl)phenyl)-1H-benzo[d]imidazole-6-carboxamide] had a pIC50 of 5.09. For the same compound, in experiment [1], the “MBNL1 % splicing rescue at 10 μM” value was 39.2%.
The compound `CCN(CC)CCNC(=O)c1ccc(-c2nc3cc(-c4ccc5[nH]c(-c6ccc(C(=O)NCCN(CC)CC)cc6)nc5c4)ccc3[nH]2)cc1` [Compound 112] showed a pIC50 in the experiment with r(CUG)12-MBNL1 complex (Table L) of 5.30. In addition, the “MBNL1 % splicing rescue at 10 μM” value in experiment [1] was 66.5%.
Turning to `CN1CCCCC1COc1ccc(-c2nc3cc(-c4ccc5[nH]c(-c6ccc(O)cc6)nc5c4)ccc3[nH]2)cc1` (centres unmarked) [Compound 358], the pIC50 in the experiment on r(CUG)12-MBNL1 complex (Table M) is 4.72. In experiment [1], the “MBNL1 % splicing rescue at 1 μM” value was determined as 12.4% and the “MBNL1 % splicing rescue at 10 μM” value is 74.6%.
Turning to `c1cc2nc(-c3ccc(-c4nc5ccc(NC6=NCCN6C6=NCCN6)cc5[nH]4)cc3)[nH]c2cc1NC1=NCCN1C1=NCCN1` [Compound 77], the pIC50 in the experiment on r(CUG)12-MBNL1 complex (Table L) is 4.97. Besides, the “MBNL1 % splicing rescue at 10 μM” value in experiment [1] amounted to 4.2%.
In the experiment on r(CUG)12-MBNL1 complex (Table M), `COc1cc(-c2nc3ccc(C(=O)OCCN(C)C)cc3[nH]2)c(OC)cc1-c1nc2ccc(C(=O)OCCN(C)C)cc2[nH]1` [Compound 269, bis(2-(dimethylamino)ethyl) 2,2′-(2,5-dimethoxy-1,4-phenylene)bis(1H-benzo[d]imidazole-6-carboxylate)] gave a pIC50 of 5.51. Besides, the “MBNL1 % splicing rescue at 10 μM” value in experiment [1] is on record as 55.6%.
Regarding `CN(C)CCCCCOc1ccc2nc(-c3ccc(-c4nc5ccc(OCCCCCN(C)C)cc5[nH]4)cc3)[nH]c2c1` [Compound 192], in the experiment on r(CUG)12-MBNL1 complex (Table M), the pIC50 was 4.89. In addition, in experiment [1], the “MBNL1 % splicing rescue at 10 μM” value is listed as 111.7%.
In the case of `CN(C)CCCOc1ccc2nc(-c3ccc(-c4nc5ccc(OCCCC(=O)OC(C)(C)C)cc5[nH]4)cc3)[nH]c2c1` [Compound 252, tert-butyl 4-((2-(4-(5-(3-(dimethylamino)propoxy)-1H-benzo[d]imidazol-2-yl)phenyl)-1H-benzo[d]imidazol-5-yl)oxy)butanoate], the pIC50 in the experiment with r(CUG)12-MBNL1 complex (Table M) was 4.72. Also, in experiment [1], the “MBNL1 % splicing rescue at 10 μM” value is 13.0%.
Regarding `CCN(CC)CCOc1ccc(-c2nc3cc(-c4ccc5[nH]c(-c6ccc(OCCN(CC)CC)cc6)nc5c4)ccc3[nH]2)cc1` [Compound 353], the pIC50 in the experiment on r(CUG)12-MBNL1 complex (Table M) was 4.87. Moreover, in experiment [1], the “MBNL1 % splicing rescue at 1 μM” value is recorded as 7.5%.
Turning to `C#CCCCCN(C)CCNC(=O)c1ccc(-c2nc3cc(-c4ccc5[nH]c(-c6ccc(C(=O)NCCN(C)C)cc6)nc5c4)ccc3[nH]2)cc1` [Compound 401, N-(2-(dimethylamino)ethyl)-4-(2′-(4-((2-(hex-5-yn-1-yl(methyl)amino)ethyl)carbamoyl)phenyl)-1H,1′H-[5,5′-bibenzo[d]imidazol]-2-yl)benzamide], in the experiment on r(CUG)12-MBNL1 complex (Table M), the pIC50 was 4.97. In addition, in experiment [1], the “MBNL1 % splicing rescue at 5 μM” value is given as −11.3%.
`C#CCCCCN(C)CCNC(=O)CCCOc1ccc2[nH]c(-c3ccc(-c4nc5cc(OCCCN(C)C)ccc5[nH]4)cc3)nc2c1` [Compound 320] gave a pIC50 in the experiment on r(CUG)12-MBNL1 complex (Table M) of 4.78. Moreover, the “MBNL1 % splicing rescue at 10 μM” value in experiment [1] is recorded as 88.2%.
In the experiment on r(CUG)12-MBNL1 complex (Table M), `CN(C)CCNS(=O)(=O)c1ccc2nc(-c3ccc(-c4nc5ccc(S(=O)(=O)NCCN(C)C)cc5[nH]4)cc3)[nH]c2c1` [Compound 275, 2,2′-(1,4-phenylene)bis(N-(2-(dimethylamino)ethyl)-1H-benzo[d]imidazole-6-sulfonamide)] showed a pIC50 of 4.61. Also, in experiment [1], the “MBNL1 % splicing rescue at 10 μM” value was −6.5%.
The like results for `CN(C)CCCS(=O)(=O)c1ccc2[nH]c(-c3ccc(-c4nc5cc(S(=O)(=O)CCCN(C)C)ccc5[nH]4)cc3)nc2c1` [Compound 202, 3,3′-(2,2′-(1,4-phenylene)bis(1H-benzo[d]imidazole-6,6′-sulfonyl))bis(N,N-dimethylpropan-1-amine)] were, in that order, 4.38 and 34.0%.
In the case of `CN(C)CCCSc1ccc2nc(-c3ccc(-c4nc5ccc(SCCCN(C)C)cc5[nH]4)c4c3OCO4)[nH]c2c1` [Compound 306], the pIC50 in the experiment with r(CUG)12-MBNL1 complex (Table M) was 4.92. The “MBNL1 % splicing rescue at 10 μM” value in experiment [1] amounted to 11.7%.
In the case of `CN(C)CCCOc1ccc2nc(-c3ccc(-c4nc5ccc(OCCCN(C)C)cc5[nH]4)c(C#N)c3)[nH]c2c1` [Compound 268, 2,5-bis(6-(3-(dimethylamino)propoxy)-1H-benzo[d]imidazol-2-yl)benzonitrile], the pIC50 with r(CUG)12-MBNL1 complex (Table M) is 5.02. For the same compound, the “MBNL1 % splicing rescue at 10 μM” value in experiment [1] is 73.6%.
As for `CN(C)CCCOc1ccc(-c2nc3cc(-c4ccc5[nH]c(-c6ccc(O)cc6)nc5c4)ccc3[nH]2)cc1` [Compound 348], the pIC50 with r(CUG)12-MBNL1 complex (Table M) was 4.77. For the same compound, in experiment [1], the “MBNL1 % splicing rescue at 1 μM” value came to 75.3% and the “MBNL1 % splicing rescue at 10 μM” value is 75.3%.
`CN(C)CCCOc1ccc2nc(-c3ccc(-c4nc5ccc(C(=O)OCCN(C)C)cc5[nH]4)cc3)[nH]c2c1` [Compound 266] gave a pIC50 in the experiment with r(CUG)12-MBNL1 complex (Table M) of 4.97. Besides, the “MBNL1 % splicing rescue at 10 μM” value in experiment [1] is on record as −13.1%.
